Test results published in US9636299B2, “Method for treating diabetic retinopathy” (XAVIER UNIVERSITY OF LOUISIANA, priority 2012, dated 2017).
Residues, ends and D or L forms follow the SMILES beside them.

How the values were obtained:
heparan sulfate (HS) = assay: Heparan sulfate shedding in high glucose-treated hRMECs (Western blot); type: cell-based, human; details: 30 mM glucose 72 hours, 50 or 100 μM apoEdp
Source text: Cell Culture. Primary cultures of human retina microvascular endothelial cells (hRMECs) were purchased from the Applied Cell Biology Research Institute and grown on attachment factor-coated plates in cell systems complete (CSC) medium (Cell Systems, Kirkland, Wash.) supplemented with 20% fetal bovine serum, culture boost (animal derived growth factors) and bac-off (antibiotics). The primary hRMECs were used in their passages 4 to 6. The 18-a.a. apoE mimetic peptide apoEdp (SEQ ID NO:3, Ac-LRKLRKRLLLRKLRKRLL-amide), derived from the human apolipoprotein E receptor-binding region (see SED ID NO:1) between residues 141 and 149, was synthesized (Genemed, Arlington, Tex.) with a purity of greater than 95%. The apoEdp peptide was dissolved in phosphate-buffered saline (“PBS”) at a concentration appropriate for further experimental use. […]
Western Blotting. […] The total protein concentration was determined using a BCA protein assay kit (Pierce, Rockford, Ill.). […] To ensure the equal loading of protein in each lane, each membrane was stripped and re-probed with an antibody against β-actin, and the chemiluminescence was detected as described previously. After scanning the blots with a flatbed scanner, band intensities were analyzed using ImageJ (NIH) and the relative intensity values were normalized to control values. […]

MMP2 = assay: Laser photocoagulation-induced retinal injury in mice, MMP2 real-time RT-PCR; type: in vivo, mouse; details: apoEdp 40 mg/kg intraperitoneally once each day for 7 days, vs mice without apoEdp
Method: Laser Photocoagulation-Induced Retinopathy. Female mice (C57BL/6J), aged 6-8 weeks, were used for retinal laser photocoagulation studies. The mice were treated and maintained in accordance with the ARVO Statement for the Use of Animals in Ophthalmic and Vision Research. The mice were anesthetized by intraperitoneal injection of a mixture of ketamine (100 mg/kg; Warner Lambert Co., Morris Plains, N.J.) and xylazine (10 mg/kg; Bayer AG, Leverkusen, Germany), and the pupils dilated with 2.5% tropicamide (Alcon, Fort Worth, Tex.). […]
RNA Extraction, Reverse Transcription, & PCR. […] Gene expression was measured at RNA level per 100 ng of total RNA using one-step RT-PCR kit (Bio-Rad, Hercules, Calif.). Four host genes (mouse GAPDH, mouse MMP2, mouse HPSE-1 (heparanase-1), and mouse MMP9) were analyzed to confirm relative quantitative expression levels. The primer pairs used were specifically designed and synthesized by Qiagen GmbH, Hilden, Germany (Quantitech Primer assay kit, for each host gene, catalog numbers QT01658692, QT00088396, QT00009555, and QT00040040, respectively). One-step Real-time quantitative RT-PCR reactions were performed in a 50-μL volume containing a solution of 1× supermix (iQ SYBR Green; Bio-Rad, Hercules, Calif.), 1 μM mix of forward and reverse primers, and 5 μL total RNA. […] Relative quantitative expression levels were determined for each gene. […]

**Q.** Which “High glucose-induced shedding of HS” value (heparan sulfate (HS)) does the source give for `CC(=O)N[C@@H](CC(C)C)C(=O)N[C@@H](CCCNC(=N)N)C(=O)N[C@@H](CCCCN)C(=O)N[C@@H](CC(C)C)C(=O)N[C@@H](CCCNC(=N)N)C(=O)N[C@@H](CCCCN)C(=O)N[C@@H](CCCNC(=N)N)C(=O)N[C@@H](CC(C)C)C(=O)N[C@@H](CC(C)C)C(=O)N[C@@H](CC(C)C)C(=O)N[C@@H](CCCNC(=N)N)C(=O)N[C@@H](CCCCN)C(=O)N[C@@H](CC(C)C)C(=O)N[C@@H](CCCNC(=N)N)C(=O)N[C@@H](CCCCN)C(=O)N[C@@H](CCCNC(=N)N)C(=O)N[C@@H](CC(C)C)C(=O)N[C@@H](CC(C)C)C(N)=O` [apoEdp, Ac-LRKLRKRLLLRKLRKRLL-amide] (Ac-LRKLRKRLLLRKLRKRLL-NH2) here?
**A.** reduced the shedding

**Q.** And the “Expression of MMP2 in retina” value (MMP2)?
**A.** dramatically reduced
